# According to patent US8735601B2, “Pentamethine cyanine fluorescent dye with N-substituting at β-position of conjugated chain” (Dalian University of Technology, priority 2010, dated 2014):
# Legend:
# [1] = target: bovine serum albumin (BSA) (Bos taurus, UniProt P02769); test: Titration of dye solution with BSA, fluorescence and UV absorption; format: binding; settings: dye solution 1 μM, PBS pH 7.4
# Method: (§1) The solutions of compounds Ha to IIc in a concentration of 1×10^−6M (10 mM PBS buffer (pH=7.4) was used as solvent) was prepared, and 3 ml of the each dye solution was added into a cuvette, respectively. Then, an aqueous bovine serum albumin (BSA) stock solution with the concentration of 50 μg/μL (750 μM) was added dropwise into each of the dye solution. The fluorescence intensity of the dye was measured each 5 minutes after addition of BSA for fluorescence becoming stable, on UV-visible spectrophotometer (Mode: Hp8453) and fluorescence spectrophotometer (Mode: FP-6500).
# Especially for dyes IIb and IIc, the fluorescence intensity thereof was increased linearly with addition of BSA to arrive at more than 30 folds.
# [2] = Measurement of fluorescence quantum yield (Rhodamine B in ethanol as reference); format: physicochemical
# calf thymus DNA (ct-DNA) = test: Titration of dye solution with calf thymus DNA, fluorescence and UV absorption; format: binding; settings: dye 1×10^−6 M, PBS pH 7.4
# Method: as §1, with “cuvette separately.” for “cuvette, respectively.”, “calf thymus DNA” for “bovine serum albumin (BSA)”, “was prepared,” for “with”, “the calf thymus DNA stock solution was determined as 1.5×10^−3 mM by the absorbance at 260 nm on UV absorption spectrophotometer. The calf thymus DNA stock solution” for “50 μg/μL (750 μM)”
# From the interaction results of three dyes with calf thymus DNA, it can be known that no evident fluorescence increase was found after the interaction of the dye with the DNA. FIGS. 4 and 5 were titration figures of the interaction of dye lib with calf thymus DNA. […] All of these indicated DNA could be differentiated from protein by dyes IIa, IIb and IIc.
# [3] = Absorption and emission spectra of dyes in different solvents; format: physicochemical; set-up: key to Δλ1 / Δλ2: Stokes shift in nm; ε1 (molar extinction coefficient) / ε2 (molar extinction coefficient): scale not given here; settings: for Δλ1: Stokes shift to absorption peak 1; for Δλ2: Stokes shift to absorption peak 2
# Excerpt: In the present invention, compounds IIa to IIg were synthesized based on compound II, and their spectral properties were investigated. Compared with the traditional pentamethine cyanine dye, for the novel pentamethine cyanine dye with N-substituting at β-position (deviated position), it was observed that, evident blue shift of absorption and emission wavelengths occurred, absorption wavelength blue shifted even largely than that of emission wavelength, absorption spectrum and fluorescence spectrum were no longer mirror-symmetric and had two absorption peaks and a single emission peak, and larger Stokes shift (minimum 60 and 150 nm, and maximum 90 and 230 nm) appeared.
# bovine serum albumin (BSA), sequence (P02769 25-607): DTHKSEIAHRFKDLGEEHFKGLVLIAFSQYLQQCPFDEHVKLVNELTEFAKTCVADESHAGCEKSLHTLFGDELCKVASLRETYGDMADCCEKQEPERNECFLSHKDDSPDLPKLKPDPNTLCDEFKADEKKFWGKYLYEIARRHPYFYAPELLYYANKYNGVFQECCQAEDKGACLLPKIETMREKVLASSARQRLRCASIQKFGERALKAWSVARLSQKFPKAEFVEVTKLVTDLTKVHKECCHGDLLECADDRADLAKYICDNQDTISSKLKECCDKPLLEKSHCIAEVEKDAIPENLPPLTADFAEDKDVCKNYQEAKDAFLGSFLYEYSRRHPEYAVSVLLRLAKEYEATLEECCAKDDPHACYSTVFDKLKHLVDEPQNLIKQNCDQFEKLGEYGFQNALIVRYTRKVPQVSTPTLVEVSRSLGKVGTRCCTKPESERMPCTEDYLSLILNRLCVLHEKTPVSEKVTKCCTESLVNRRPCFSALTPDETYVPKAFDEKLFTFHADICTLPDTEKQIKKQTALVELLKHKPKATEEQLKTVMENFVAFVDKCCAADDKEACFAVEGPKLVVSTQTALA
compound,measurement,setting,value
CCN1/C(=C/C=C/C(=C/C2=[N+](CC)c3ccccc3C2(C)C)NCCO)C(C)(C)c2ccccc21 [Dye IIb],change of fluorescence intensity by interaction with protein (BSA),[1],largely increased
same,Φ1 (fluorescence quantum yield),[2]; solvent DCM,0.114
same,Φ2 (fluorescence quantum yield),[2]; solvent DCM,0.100
same,Φ1 (fluorescence quantum yield),[2]; solvent DMSO,0.009
same,Φ2 (fluorescence quantum yield),[2]; solvent DMSO,0.008
same,Φ1 (fluorescence quantum yield),[2]; solvent Ethanol,0.019
same,Φ2 (fluorescence quantum yield),[2]; solvent Ethanol,0.017
same,Φ1 (fluorescence quantum yield),[2]; solvent Methanol,0.009
same,Φ2 (fluorescence quantum yield),[2]; solvent Methanol,0.008
same,Φ1 (fluorescence quantum yield),[2]; solvent THF,0.085
same,Φ2 (fluorescence quantum yield),[2]; solvent THF,0.075
same,Φ1 (fluorescence quantum yield),[2]; solvent Water,0.002
same,Φ2 (fluorescence quantum yield),[2]; solvent Water,0.002
same,change of fluorescence by interaction with ct-DNA,calf thymus DNA (ct-DNA),little fluorescence increase
same,Δλ1,[3]; solvent DCM,79
same,Δλ1,[3]; solvent DMSO,91
same,Δλ1,[3]; solvent Ethanol,91
same,Δλ1,[3]; solvent Methanol,89
same,Δλ1,[3]; solvent THF,82
same,Δλ1,[3]; solvent Water,103
same,Δλ2,[3]; solvent DCM,167
same,Δλ2,[3]; solvent DMSO,170
same,Δλ2,[3]; solvent Ethanol,177
same,Δλ2,[3]; solvent Methanol,175
same,Δλ2,[3]; solvent THF,158
same,Δλ2,[3]; solvent Water,190
same,ε1 (molar extinction coefficient),[3]; solvent DCM,3.4 cm^−1M
same,ε2 (molar extinction coefficient),[3]; solvent DCM,1.7 cm^−1M
same,λabs1,[3]; solvent DCM,517 nm
same,λbs2,[3]; solvent DCM,429 nm
same,λem,[3]; solvent DCM,596 nm
same,ε1 (molar extinction coefficient),[3]; solvent DMSO,3.0 cm^−1M
same,ε2 (molar extinction coefficient),[3]; solvent DMSO,2.3 cm^−1M
same,λabs1,[3]; solvent DMSO,515 nm
same,λbs2,[3]; solvent DMSO,436 nm
same,λem,[3]; solvent DMSO,606 nm
same,ε1 (molar extinction coefficient),[3]; solvent Ethanol,3.3 cm^−1M
same,ε2 (molar extinction coefficient),[3]; solvent Ethanol,2.3 cm^−1M
same,λabs1,[3]; solvent Ethanol,521 nm
same,λbs2,[3]; solvent Ethanol,435 nm
same,λem,[3]; solvent Ethanol,612 nm
same,ε1 (molar extinction coefficient),[3]; solvent Methanol,3.1 cm^−1M
same,ε2 (molar extinction coefficient),[3]; solvent Methanol,2.4 cm^−1M
same,λabs1,[3]; solvent Methanol,519 nm
same,λbs2,[3]; solvent Methanol,433 nm
same,λem,[3]; solvent Methanol,608 nm
same,ε1 (molar extinction coefficient),[3]; solvent THF,3.6 cm^−1M
same,ε2 (molar extinction coefficient),[3]; solvent THF,2.2 cm^−1M
same,λabs1,[3]; solvent THF,503 nm
same,λbs2,[3]; solvent THF,427 nm
same,λem,[3]; solvent THF,585 nm
same,ε1 (molar extinction coefficient),[3]; solvent Water,2.1 cm^−1M
same,ε2 (molar extinction coefficient),[3]; solvent Water,1.7 cm^−1M
same,λabs1,[3]; solvent Water,517 nm
same,λbs2,[3]; solvent Water,430 nm
same,λem,[3]; solvent Water,620 nm
CCN1/C(=C/C=C/C(=C/C2=[N+](CC)c3ccccc3C2(C)C)N(CCO)CCO)C(C)(C)c2ccccc21 [Dye IIc],change of fluorescence intensity by interaction with protein (BSA),[1],largely increased
same,Φ1 (fluorescence quantum yield),[2]; solvent DCM,0.124
same,Φ2 (fluorescence quantum yield),[2]; solvent DCM,0.061
same,Φ1 (fluorescence quantum yield),[2]; solvent DMSO,0.005
same,Φ2 (fluorescence quantum yield),[2]; solvent DMSO,0.005
same,Φ1 (fluorescence quantum yield),[2]; solvent Ethanol,0.014
same,Φ2 (fluorescence quantum yield),[2]; solvent Ethanol,0.013
same,Φ1 (fluorescence quantum yield),[2]; solvent Methanol,0.007
same,Φ2 (fluorescence quantum yield),[2]; solvent Methanol,0.008
same,Φ1 (fluorescence quantum yield),[2]; solvent THF,0.109
same,Φ2 (fluorescence quantum yield),[2]; solvent THF,0.099
same,Φ1 (fluorescence quantum yield),[2]; solvent Water,0.001
same,Φ2 (fluorescence quantum yield),[2]; solvent Water,0.001
same,change of fluorescence by interaction with ct-DNA,calf thymus DNA (ct-DNA),little fluorescence increase
same,Δλ1,[3]; solvent DCM,96
same,Δλ1,[3]; solvent DMSO,97
same,Δλ1,[3]; solvent Ethanol,97
same,Δλ1,[3]; solvent Methanol,97
same,Δλ1,[3]; solvent THF,88
same,Δλ1,[3]; solvent Water,98
same,Δλ2,[3]; solvent DCM,168
same,Δλ2,[3]; solvent DMSO,154
same,Δλ2,[3]; solvent Ethanol,167
same,Δλ2,[3]; solvent Methanol,169
same,Δλ2,[3]; solvent THF,155
same,Δλ2,[3]; solvent Water,168
same,ε1 (molar extinction coefficient),[3]; solvent DCM,2.8 cm^−1M
same,ε2 (molar extinction coefficient),[3]; solvent DCM,2.1 cm^−1M
same,λabs1,[3]; solvent DCM,526 nm
same,λbs2,[3]; solvent DCM,454 nm
same,λem,[3]; solvent DCM,622 nm
same,ε1 (molar extinction coefficient),[3]; solvent DMSO,2.5 cm^−1M
same,ε2 (molar extinction coefficient),[3]; solvent DMSO,2.1 cm^−1M
same,λabs1,[3]; solvent DMSO,515 nm
same,λbs2,[3]; solvent DMSO,458 nm
same,λem,[3]; solvent DMSO,612 nm
same,ε1 (molar extinction coefficient),[3]; solvent Ethanol,2.8 cm^−1M
same,ε2 (molar extinction coefficient),[3]; solvent Ethanol,2.3 cm^−1M
same,λabs1,[3]; solvent Ethanol,521 nm
same,λbs2,[3]; solvent Ethanol,451 nm
same,λem,[3]; solvent Ethanol,618 nm
same,ε1 (molar extinction coefficient),[3]; solvent Methanol,3.1 cm^−1M
same,ε2 (molar extinction coefficient),[3]; solvent Methanol,2.2 cm^−1M
same,λabs1,[3]; solvent Methanol,522 nm
same,λbs2,[3]; solvent Methanol,450 nm
same,λem,[3]; solvent Methanol,619 nm
same,ε1 (molar extinction coefficient),[3]; solvent THF,3.1 cm^−1M
same,ε2 (molar extinction coefficient),[3]; solvent THF,1.9 cm^−1M
same,λabs1,[3]; solvent THF,517 nm
same,λbs2,[3]; solvent THF,450 nm
same,λem,[3]; solvent THF,605 nm
same,ε1 (molar extinction coefficient),[3]; solvent Water,1.8 cm^−1M
same,ε2 (molar extinction coefficient),[3]; solvent Water,1.9 cm^−1M
same,λabs1,[3]; solvent Water,517 nm
same,λbs2,[3]; solvent Water,447 nm
same,λem,[3]; solvent Water,615 nm
CCN1/C(=C/C=C/C(N)=C/C2=[N+](CC)c3ccccc3C2(C)C)C(C)(C)c2ccccc21 [Dye IIa],change of fluorescence intensity by interaction with protein (BSA),[1]; listed as Ha,largely increased
same,Φ1 (fluorescence quantum yield),[2]; solvent DCM,0.115
same,Φ2 (fluorescence quantum yield),[2]; solvent DCM,0.032
same,Φ1 (fluorescence quantum yield),[2]; solvent DMSO,0.020
same,Φ2 (fluorescence quantum yield),[2]; solvent DMSO,0.009
same,Φ1 (fluorescence quantum yield),[2]; solvent Ethanol,0.014
same,Φ2 (fluorescence quantum yield),[2]; solvent Ethanol,0.009
same,Φ1 (fluorescence quantum yield),[2]; solvent Methanol,0.007
same,Φ2 (fluorescence quantum yield),[2]; solvent Methanol,0.004
same,Φ1 (fluorescence quantum yield),[2]; solvent THF,0.053
same,Φ2 (fluorescence quantum yield),[2]; solvent THF,0.008
same,Φ1 (fluorescence quantum yield),[2]; solvent Water,0.002
same,Φ2 (fluorescence quantum yield),[2]; solvent Water,0.001
same,change of fluorescence by interaction with ct-DNA,calf thymus DNA (ct-DNA); listed as Ha,little fluorescence increase
same,Δλ1,[3]; solvent DCM,63
same,Δλ1,[3]; solvent DMSO,75
same,Δλ1,[3]; solvent Ethanol,75
same,Δλ1,[3]; solvent Methanol,78
same,Δλ1,[3]; solvent THF,64
same,Δλ1,[3]; solvent Water,92
same,Δλ2,[3]; solvent DCM,191
same,Δλ2,[3]; solvent DMSO,189
same,Δλ2,[3]; solvent Ethanol,182
same,Δλ2,[3]; solvent Methanol,188
same,Δλ2,[3]; solvent THF,182
same,Δλ2,[3]; solvent Water,203
same,ε1 (molar extinction coefficient),[3]; solvent DCM,5.4 cm^−1M
same,ε2 (molar extinction coefficient),[3]; solvent DCM,1.6 cm^−1M
same,λabs1,[3]; solvent DCM,546 nm
same,λbs2,[3]; solvent DCM,418 nm
same,λem,[3]; solvent DCM,609 nm
same,ε1 (molar extinction coefficient),[3]; solvent DMSO,4.9 cm^−1M
same,ε2 (molar extinction coefficient),[3]; solvent DMSO,1.7 cm^−1M
same,λabs1,[3]; solvent DMSO,533 nm
same,λbs2,[3]; solvent DMSO,419 nm
same,λem,[3]; solvent DMSO,608 nm
same,ε1 (molar extinction coefficient),[3]; solvent Ethanol,4.8 cm^−1M
same,ε2 (molar extinction coefficient),[3]; solvent Ethanol,2.0 cm^−1M
same,λabs1,[3]; solvent Ethanol,527 nm
same,λbs2,[3]; solvent Ethanol,420 nm
same,λem,[3]; solvent Ethanol,602 nm
same,ε1 (molar extinction coefficient),[3]; solvent Methanol,5.1 cm^−1M
same,ε2 (molar extinction coefficient),[3]; solvent Methanol,2.0 cm^−1M
same,λabs1,[3]; solvent Methanol,528 nm
same,λbs2,[3]; solvent Methanol,418 nm
same,λem,[3]; solvent Methanol,606 nm
same,ε1 (molar extinction coefficient),[3]; solvent THF,4.8 cm^−1M
same,ε2 (molar extinction coefficient),[3]; solvent THF,1.6 cm^−1M
same,λabs1,[3]; solvent THF,526 nm
same,λbs2,[3]; solvent THF,408 nm
same,λem,[3]; solvent THF,590 nm
same,ε1 (molar extinction coefficient),[3]; solvent Water,3.6 cm^−1M
same,ε2 (molar extinction coefficient),[3]; solvent Water,1.7 cm^−1M
same,λabs1,[3]; solvent Water,527 nm
same,λbs2,[3]; solvent Water,416 nm
same,λem,[3]; solvent Water,619 nm
